According to PMC8987157, “Regioselective One-Pot Synthesis of Hydroxy-(S)-Equols Using Isoflavonoid Reductases and Monooxygenases and Evaluation of the Hydroxyequol Derivatives as Selective Estrogen Receptor Modulators and Antioxidants” (Frontiers in Bioengineering and Biotechnology, 2022):
Values joined by “and” are separate entries in the source; they are usually repeats but may differ in a detail not shown here. Identical values can stand only once.

Experiments:
[1] = biological target: T1, ERβ LBD (Homo sapiens, UniProt Q92731); experiment: ERβ-SRC1 agonistic yeast two hybrid (Y2H) assay, β-galactosidase activity; assay type: cell-based; details: for β/α ratio of EC50^-1: ERβ over ERα, Y2H; for EC50: Y2H ERβ-SRC1, yeast L40, triplicates
T1 construct: LexA DBD-ERβ LBD (264–510); expressed in transfected cells; host or cells: Saccharomyces cerevisiae L40
Description: (§1) Microbial strains. Cloning information and used primers for the construction of EcHpaBC and MaFMO encoded vectors are listed in Supplementary Table S1. […] Three EcHpaB mutants were made by site-directed mutagenesis using the listed overlapping primer-containing intended mutations. […] These sets of two vectors (pBTM116:LexA DBD-ERα LBD & pVP16:VP16 AD-(Gly4Ser)2-tSRC1 or pBTM116:LexA DBD-ERβ LBD & pVP16:VP16 AD-(Gly4Ser)2-tSRC1) were transformed in the L40 strains.
(§2) Yeast-two-hybrid assay. The transformed L40 strains were grown in synthetic leucine and tryptophan drop-out (SD L^−W^-) media. […] These plates were incubated at 30 °C with shaking of 1,000 rpm for overnight (∼20 h). After the incubation, the cultures were centrifuged, and the supernatants were discarded. In each well, 500 μL Z-buffer (60 mM Na2HPO4, 40 mM NaH2PO4, 10 mM KCl, and 1 mM MgSO4; pH 7.0) with 1 mM dithiothreitol (DTT) was filled and resuspended. 50 μL of each suspension was taken for OD600 measurement before chloroform treatment. (This value was not used for the measurement of the Miller unit.) Chloroform 50 μL was added to each 450 μL of the suspension, and the solution mixture was shaked for 1 min at 1,000 rpm to disrupt the cell membrane. The disrupted suspensions were kept still at room temperature for 2 min, and 50 μL aqueous aliquots were taken. In polystyrene flat-bottomed 96-well plate, each well was charged with 100 μL of Z-buffer with 1 mM DTT, 50 μL aqueous aliquot, and 50 μL of Z-buffer with 1 mM DTT and 0.4 mg/ml ortho-nitrophenyl-β-galactoside (ONPG). Initially, OD600 of all the wells was measured, and subsequently, OD420 of the same wells was measured for 30 min with a minute interval. […] E/E0=ε/1+10^n(log(EC50)−log([L])),
(§3) where E/E 0 is the normalized Miller unit and ε is the maximum response relative to E2 (ε(E2) = 1). [L] is the concentration of ligands and n is the Hill’s coefficient.

[2] = biological target: T2, ERα LBD (Homo sapiens, UniProt P03372); experiment: ERα-SRC1 agonistic yeast two hybrid (Y2H) assay, β-galactosidase activity; assay type: cell-based; details: for EC50: Y2H ERα-SRC1, yeast L40, triplicates
T2 construct: expressed in transfected cells; host or cells: Saccharomyces cerevisiae L40
T2 sequence (P03372 312-595): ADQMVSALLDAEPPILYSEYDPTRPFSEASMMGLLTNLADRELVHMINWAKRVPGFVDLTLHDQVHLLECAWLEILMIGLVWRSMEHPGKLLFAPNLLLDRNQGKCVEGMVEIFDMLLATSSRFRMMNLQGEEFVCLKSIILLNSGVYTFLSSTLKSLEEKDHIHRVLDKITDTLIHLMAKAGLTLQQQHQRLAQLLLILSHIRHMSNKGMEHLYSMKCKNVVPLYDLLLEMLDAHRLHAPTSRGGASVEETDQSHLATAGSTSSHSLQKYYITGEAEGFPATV
T2 sequence (Q15788 613-773 partner limits assumed): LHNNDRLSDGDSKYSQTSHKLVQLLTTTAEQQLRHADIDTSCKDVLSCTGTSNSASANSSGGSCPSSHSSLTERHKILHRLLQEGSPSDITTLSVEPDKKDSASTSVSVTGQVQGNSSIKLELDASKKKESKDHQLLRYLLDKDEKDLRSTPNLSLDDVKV
Description: as §1, §2, §3

[3] = DPPH radical scavenging assay
Experimental: DPPH radical scavenging assay. In each well of polystyrene flat-bottom 96-well plates, 200 μL of solution containing 0.1 mM 2,2-diphenyl-1-(2,4,6-trinitrophenyl)hydrazin-1-yl (DPPH) radical, 50% (v/v) MeOH, 10% (v/v) DMSO, specific amount of compounds, and 1x concentration of phosphate buffered saline (PBS) was made. The PBS was prepared with 4x concentration of its original recipe with pH 7.4 and diluted by adding 50 μL in the solution mixture. The plates were incubated at 37°C for 30 min. The OD520 and OD495 of incubated plates were measured. The radical scavenging activity was defined as (OD520/OD495)DMSO- OD520/OD495. (OD520/OD495)DMSO is the OD520/OD495 of the DMSO control without antioxidative compounds. The radical scavenging activity values were normalized with the value of the positive control (1 mM of L-ascorbic acid). The data were triplicated, and the average values were regressed using the following formula.
where E/E 0 is the normalized radical scavenging activity, [L] is the concentration of compounds, and n is the Hill’s coefficient, and EC50 is the value of effective concentration at E/E 0 = 0.5.

[4] = test system: ERα; set-up: method as in Lee et al., 2017; details: ref Lee et al., 2017; cited from earlier work

T1 sequence (Q92731 264-510, one chain of several): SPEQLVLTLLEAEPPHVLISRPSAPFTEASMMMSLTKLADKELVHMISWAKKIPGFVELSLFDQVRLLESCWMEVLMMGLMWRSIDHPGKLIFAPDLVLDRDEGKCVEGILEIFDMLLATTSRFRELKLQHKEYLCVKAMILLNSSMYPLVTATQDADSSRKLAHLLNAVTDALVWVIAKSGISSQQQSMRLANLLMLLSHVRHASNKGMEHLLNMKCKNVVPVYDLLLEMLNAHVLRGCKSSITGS

fold higher EC50 than (S)-equol ([1]; ERβ)	β/α ratio of EC50^-1 [1]	EC50 [1]	fold higher EC50 than (S)-equol ([2]; ERα)	EC50 [2]	response in Y2H agonist assay ([1]; ERβ, concentrations in the range of 10^–8∼10^–3 M)	response in Y2H agonist assay ([2]; ERα, concentrations in the range of 10^–8∼10^–3 M)	lower β/α ratio response than that of 17β-estradiol [1]	weaker estrogenic activity than E2 ([1]; ERβ)	weaker estrogenic activity than E2 ([2]; ERα)	Compound	antioxidative activity higher than 3′HD [3]	binding affinity ERα versus ERβ [4]
30∼200 fold	1.15	10 to 100 µM and 17.9 µM	30∼200 fold	10 to 100 µM and 20.6 µM	–	–	–	–	–	Oc1ccc2c(c1)OC[C@H](c1ccc(O)c(O)c1)C2 [3'-hydroxy-(S)-equol, 3′-hydroxy-(S)-equol]	more than 40%	–
–	–	–	–	–	did not show any response	did not show any response	–	–	–	Oc1ccc([C@H]2COc3cc(O)cc(O)c3C2)cc1 [5-hydroxy-(S)-equol]	–	higher binding affinity to ERα than ERβ
30∼200 fold	1.00	10 to 100 µM and 102 µM	30∼200 fold	10 to 100 µM and 102 µM	–	–	10%	–	–	Oc1ccc([C@H]2COc3cc(O)c(O)cc3C2)cc1 [6-hydroxy-(S)-equol]	–	–
–	1.31	0.506 µM	–	0.665 µM	–	–	–	about 3 orders of magnitude	about 3 orders of magnitude	Oc1ccc([C@H]2COc3cc(O)ccc3C2)cc1 [(S)-equol]	–	–
